Data taken from patent US4629782A, “Crystalline form of N-acetylmuramyl-L-α-aminobutyryl-D-isoglutamine” (Syntex (U.S.A.) Inc., priority 1984, dated 1986).

What was measured:
[1] = Hygroscopicity, visual comparison at 76% relative humidity and ambient temperature; type: physicochemical; conditions: 76% relative humidity, ambient temperature, visual observation
From the text: The crystalline monohydrate of this invention is less hygroscopic than amorphous ABU-MDP. This is readily observed by visually comparing samples of each in separate containers at 76% relative humidity and ambient temperature.

[2] = Thermogravimetric analysis (TGA) after vacuum drying and exposure to air; type: physicochemical; conditions: dried under house vacuum 12 hours, exposed to air about 3 hours; 1.5% initial weight loss attributed to surface water
Procedure: The mole ratio of water to ABU-MDP in the crystalline monohydrate of formula (1) was determined by thermogravimetric analysis (TGA). A small amount of the monohydrate prepared in accordance with Example II was dried under "house" vacuum for 12 hours and then exposed to air for about 3 hours. […] This analysis was conducted with a Perkin Elmer TGS-2 thermogravimetric balance. The heating rate was 2.5° C. per minute from 40° C. to 160° C. A dry nitrogen purge was maintained throughout each run.

| Substance | Hygroscopicity: physical state on exposure to humidity [1] | Hygroscopicity indicated by TGA [2] |
| --- | --- | --- |
| N-acetylmuramyl-L-α-aminobutyryl-D-isoglutamine [Amorphous ABU-MDP, reference compound] | turns into a syrupy solution within about an hour |  |
| acetylmuramyl-L-α-aminobutyryl-D-isoglutamine monohydrate [Crystalline monohydrate] | remains a solid | slightly hygroscopic |
